Where “and” joins values, the source holds several entries; their conditions need not be identical. Identical values can stand only once. Like-named read-outs stand apart in the source and are kept apart here. One block for each compound: values may come before it.
Assays:
SMUG1 = biological target: T1, SMUG1 (Homo sapiens, UniProt Q53HV7); assay: BER enzyme selectivity assay, SMUG1; type: biochemical; settings: Figure 3B, three independent experiments
T1 construct: purchased New England Biolabs M0336
T1 sequence (Q53HV7 1-270): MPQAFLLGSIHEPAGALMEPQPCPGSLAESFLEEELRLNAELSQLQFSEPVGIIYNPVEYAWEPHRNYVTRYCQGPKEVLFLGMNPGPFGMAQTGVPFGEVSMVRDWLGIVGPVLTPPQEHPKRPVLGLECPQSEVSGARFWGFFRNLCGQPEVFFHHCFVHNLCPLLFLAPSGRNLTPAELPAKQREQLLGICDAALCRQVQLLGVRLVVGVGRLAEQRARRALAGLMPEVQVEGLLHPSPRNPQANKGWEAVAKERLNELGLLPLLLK
Procedure: (§2) Inhibition of the following enzymes was assessed in the selectivity assays: apurinic/apyrimidinic endonuclease (APE1), endonuclease 8-like 1 (NEIL1), oxidized purine nucleoside triphosphate hydrolase (MTH1) and single-strand selective monofunctional uracil DNA glycosylase (SMUG1). BER enzymes were assayed with a similar strategy as OGG1, using identical DNA sequences surrounding the substrate lesion and the same reaction buffer containing 2 nM APE1. To assess SMUG1 inhibition, a 375 nM substrate containing uracil opposite guanine and 0.3 U SMUG1 enzyme (M0336 from New England Biolabs) was used. To assess NEIL1 inhibition, a 20 nM substrate containing thymidine glycol opposite adenine and 10 nM NEIL1 was used. […] All BER inhibition assays were in the linear range and less than 40% of the total substrate had been consumed at readout. The experiments were performed in three independent replicates and the percentage inhibition was calculated relative to the signal of a DMSO-treated control. […] The produced free phosphate was then detected using the malachite green assay[76]. […] Absorbance was read at 630 nm using a Hidex Sense plate reader after a period of incubation with the methylene green reagent of 15 minutes. The experiment was performed in three independent replicates and percentage inhibition was calculated relative to the signal of a DMSO-treated control.

[1] = test system: NF-κB activation in HEK293T pGF NF-κB cells; assay: TNF-α induced NF-κB activation assay; type: cell-based; settings: for EC50: Homo sapiens, HEK-293T
Procedure: The inhibition of TNF-α induced NF-κB activation was measured in HEK293T cells transfected with the pGreenfire NF-κB plasmid. This is a plasmid that has NF-κB response elements (TRE) coupled to GFP and luciferase expression. When the NF-κB is activated by TNF-α, it binds to the TRE and induces GFP expression, and the fluorescence can be measured in a plate reader. The cells were authenticated with STR profiling, frozen down and these stocks were used in experiments. The HEK293T pGF NF-κB cells were kept in DMEM with 5% FBS and 1% P/S but, when seeded for the assay the medium was changed to DMEM FluoroBrite with 1% dialyzed FBS. All cell culture reagents were purchased from Thermo Fisher Scientific. Compounds were nano-dispensed (Echo acoustic dispenser) in 96-well, black/clear, assay plates (Corning #3904), duplicate plates, in 8-points dose-response curves, 1:2 dilutions, with DMSO compensation (0.3% DMSO). Cells were seeded at 30000 cells/well in medium containing 10 ng/mL of TNF-α (Sigma-Aldrich), except negative control wells which only contained cells in medium. Cells were cultured for 24 hours in a humidified incubator at 37 °C with 5% CO2 after which the GFP fluorescence was measured in a Sense plate reader (Hidex) with ex485/em535. The RFU data from the duplicate plates were combined to calculate % inhibition of NF-κB activation and IC50-values were calculated using XLfit (IDBS). In parallel with the NF-κB assay, a CellTiterGlo (Promega) cell viability assay was run to exclude compounds affecting cell viability. Compounds were nano-dispensed (Echo acoustic dispenser) in assay plates in 11-points dose-response curves, 1:3 dilutions, without DMSO compensation, with duplicates on the same plate. Cells were seeded at 7500 cells/well in 25 µL medium (DMEM FluoroBrite with 1% dialyzed FBS) containing 10 ng/mL TNF-α and cultured for 24 hours, with column 24 containing only culture medium. After equilibration to room temperature, the CellTiterGlo reagents were mixed and 25 µL/well were added to the cell plate. After 2 min mixing of the plate on an orbital shaker, the plate was incubated for 10 min at room temperature followed by luminescence reading in Sense. The cell viability was calculated compared to untreated control wells and the EC50 values were determined in XLfit (IDBS). […]

A549 cells = assay: Cancer cell viability assay (resazurin), A549; type: cell-based; settings: two independent experiments; for percentage cell viability: A549, 100 μM, 100 µM; for viability at 100 µM: Homo sapiens, A549, A549, 100 μM, read-out: percentage cell viability
Procedure: (§1) Three different cancer cell lines A2780 (ovarian cancer, ECACC 93112519), A549 (lung cancer, ATCC 60150896) and HCT116 (colon cancer, ATCC CCL-247), and one immortalized fibroblast cell line (BJhTERT) as control, were seeded in black/clear 384-well plates (Corning #3764), 50 µL/well, containing 11 concentrations, nano-dispensed, dose-response curves of the test compounds. A2780, HCT116, and HEK293T cell lines were authenticated with STR profiling, frozen down, and these stocks were used in experiments. The A2780 cells were cultured in RPMI 1640, the A549 and BJhTERT cells in DMEM, and the HCT116 cells in McCoys 5 A medium. All media were supplemented with 10% FBS and 1% P/S. All cell culture media, additives, and reagents were purchased from Thermo Fisher Scientific. The cell plates were incubated 72 hours in a humidified incubator at 37 °C with 5% CO2, after which resazurin (Sigma-Aldrich), 10 µL/well, was added to a final concentration of 10 µg/mL. The plates were incubated for 6 hours with resazurin followed by fluorescence readings in a Sense plate reader (Hidex), resorufin protocol (ex 544 nm/em 595 nm). The cell viability was calculated compared to untreated control wells and the EC50 values were determined in XLfit (IDBS).

HCT116 cells = assay: Cancer cell viability assay (resazurin), HCT116; type: cell-based; settings: two independent experiments; for percentage cell viability: HCT116, 100 μM, 100 µM
Procedure: as §1

[2] = Caco-2 cell permeability assay; type: in vitro ADME; settings: human, Caco-2, pH 7.4; for Papp A→B at 60 min, 10 µM: read-out: Papp AB (10–6 cm/s); for Papp B→A at 60 min, 10 µM: read-out: Papp BA (10–6 cm/s)
Procedure: Prior to the experiment a drug solution of 10 µM was prepared and warmed to 37 °C. The Caco-2 filters were washed with pre-warmed HBSS prior to the experiment, and thereafter the experiment was started by applying the donor solution on the apical or basolateral side. The transport experiments were carried out at pH 7.4 in both the apical and basolateral chamber. The experiments were performed at 37 °C and with a stirring rate of 500 rpm. The receiver compartment was sampled at 15, 30, and 60 min, and at 60 min also a final sample from the donor chamber was taken to calculate the mass balance of the compound. The samples (100 µL) were transferred to a 96-well plate containing 100 µL methanol and Warfarin as IS and was sealed until analyzed by liquid chromatography coupled to triple quadrupole mass spectrometry (LC-MS/MS).

APE1 = APE1 (Homo sapiens, UniProt P27695); assay: biochemical
Sequence of APE1 (P27695 whole entry, species assumed): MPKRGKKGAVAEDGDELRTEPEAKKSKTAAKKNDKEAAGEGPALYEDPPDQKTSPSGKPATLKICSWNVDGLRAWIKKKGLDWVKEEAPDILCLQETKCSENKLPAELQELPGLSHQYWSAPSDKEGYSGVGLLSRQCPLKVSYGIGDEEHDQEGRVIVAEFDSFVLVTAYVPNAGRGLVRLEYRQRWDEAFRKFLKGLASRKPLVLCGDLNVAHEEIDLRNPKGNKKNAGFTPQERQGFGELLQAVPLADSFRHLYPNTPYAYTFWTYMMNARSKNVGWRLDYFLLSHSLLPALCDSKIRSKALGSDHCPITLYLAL
Procedure: as §2

NEIL1 = NEIL1 (Homo sapiens, UniProt Q96FI4); assay: biochemical
Sequence of NEIL1 (Q96FI4 whole entry, species assumed): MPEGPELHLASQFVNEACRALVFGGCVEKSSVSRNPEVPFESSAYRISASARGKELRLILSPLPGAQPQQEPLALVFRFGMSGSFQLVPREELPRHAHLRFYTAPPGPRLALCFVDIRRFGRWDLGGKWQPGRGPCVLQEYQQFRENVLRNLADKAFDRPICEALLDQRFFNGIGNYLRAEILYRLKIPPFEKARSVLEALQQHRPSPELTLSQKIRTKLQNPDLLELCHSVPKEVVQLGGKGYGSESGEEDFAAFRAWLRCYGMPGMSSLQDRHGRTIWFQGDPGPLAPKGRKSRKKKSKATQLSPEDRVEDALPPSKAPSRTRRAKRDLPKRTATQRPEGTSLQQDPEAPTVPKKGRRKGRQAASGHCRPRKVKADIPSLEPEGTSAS
Procedure: as §2

MTH1 = MTH1 (Homo sapiens, UniProt P36639); assay: biochemical
Procedure: Inhibition of the following enzymes was assessed in the selectivity assays: apurinic/apyrimidinic endonuclease (APE1), endonuclease 8-like 1 (NEIL1), oxidized purine nucleoside triphosphate hydrolase (MTH1) and single-strand selective monofunctional uracil DNA glycosylase (SMUG1). BER enzymes were assayed with a similar strategy as OGG1, using identical DNA sequences surrounding the substrate lesion and the same reaction buffer containing 2 nM APE1. To assess SMUG1 inhibition, a 375 nM substrate containing uracil opposite guanine and 0.3 U SMUG1 enzyme (M0336 from New England Biolabs) was used. To assess NEIL1 inhibition, a 20 nM substrate containing thymidine glycol opposite adenine and 10 nM NEIL1 was used. To assess APE1 inhibition, an UNG2 substrate was pre-treated with E. coli Uracil-DNA glycosylase (New England Biolabs M0280) to generate an AP-site opposite adenine, which was used at 10 nM concentration in the presence of 0.1 nM APE1. All BER inhibition assays were in the linear range and less than 40% of the total substrate had been consumed at readout. The experiments were performed in three independent replicates and the percentage inhibition was calculated relative to the signal of a DMSO-treated control. To assess MTH1 inhibition, MTH1-catalyzed dGTP hydrolysis was coupled to inorganic pyrophosphatase (PPase), thereby releasing inorganic phosphate. The produced free phosphate was then detected using the malachite green assay[76]. […] Substrate concentration at the Km value for the respective substrate was chosen if possible. Inhibition using 100 μM compound was tested in reaction buffer (100 mM Tris-Acetate pH 8.0, 10 mM magnesium acetate, 40 mM NaCl, 1 mM DTT, and 0.005% Tween-20). Samples were incubated with shaking at 22 °C for 15 minutes. The reaction was then stopped by the addition of the malachite green reagent[76]. Absorbance was read at 630 nm using a Hidex Sense plate reader after a period of incubation with the methylene green reagent of 15 minutes. The experiment was performed in three independent replicates and percentage inhibition was calculated relative to the signal of a DMSO-treated control.

OGG1-GFP in U2OS cells = biological target: T2, OGG1-GFP in U2OS cells (Homo sapiens, UniProt O15527); assay: Laser microirradiation assay (OGG1-GFP recruitment to DNA damage sites); type: cell-based; settings: for OGG1-GFP recruitment to DNA damage sites, intensity normalised to time 0 (Figure3E): single-cell replicate traces
T2 construct: expressed in transfected cells
T2 sequence (O15527 whole entry): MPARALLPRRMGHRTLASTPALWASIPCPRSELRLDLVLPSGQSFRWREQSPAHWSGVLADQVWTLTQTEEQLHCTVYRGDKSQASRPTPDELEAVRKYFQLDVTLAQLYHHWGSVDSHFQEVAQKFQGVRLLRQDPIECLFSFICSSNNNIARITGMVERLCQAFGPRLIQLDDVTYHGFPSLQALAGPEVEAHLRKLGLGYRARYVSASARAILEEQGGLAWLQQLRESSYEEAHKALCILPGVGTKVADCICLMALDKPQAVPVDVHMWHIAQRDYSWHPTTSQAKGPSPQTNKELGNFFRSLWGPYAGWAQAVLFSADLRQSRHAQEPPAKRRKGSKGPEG

[3] = NFκB activation assay, ± SD, read-out: pEC50 (converted)

- IC50 (SMUG1): > 99 µM
- efflux ratio at 60 min, 10 µM [2]: 6.7
- Papp A→B at 60 min, 10 µM [2]: 19.8 ×10⁻⁶ cm/s
- Papp B→A at 60 min, 10 µM [2]: 134 ×10⁻⁶ cm/s
- IC50 (APE1): > 99 µM
- IC50 (NEIL1): > 99 µM
- IC50 (MTH1): 24.3 µM and 20.6 µM and 24.9 µM
SMILES: Cc1nc(-c2ccc(CC(=O)Nc3noc4c3CCCC4)cc2)c(C)[nH]1 [compound 17]
- EC50 [1, 3]: 19.1 µM
- percentage cell viability (A549 cells): 56.76%
- viability at 100 µM (A549 cells): 52.6%
- percentage cell viability (HCT116 cells): 23.58%
- viability at 100 µM (HCT116 cells; Homo sapiens, HCT-116, HCT116, 100 μM, read-out: percentage cell viability): 11.8%

- Papp A→B at 60 min, 10 µM [2]: 6.13 ×10⁻⁶ cm/s
- Papp B→A at 60 min, 10 µM [2]: 94.2 ×10⁻⁶ cm/s
SMILES: Cc1nc(-c2cc(F)c(CC(=O)Nc3noc4c3CCCC4)c(F)c2)c(C)[nH]1 [compound 23]
- OGG1-GFP recruitment to DNA damage sites, intensity normalised to time 0 (Figure3E) (OGG1-GFP in U2OS cells; 10uM, time 14 s): 1.25 (2×) and 1.24 (4×) and 1.21 and 1.14 and 1.19 (2×) and 1.22 (2×) and 1.23 and 1.26 and 1.2
- OGG1-GFP recruitment to DNA damage sites, intensity normalised to time 0 (Figure3E) (OGG1-GFP in U2OS cells; 10uM, time 16 s): 1.27 (3×) and 1.26 (2×) and 1.29 (2×) and 1.23 (4×) and 1.12 and 1.19 and 1.18 and 1.24
- OGG1-GFP recruitment to DNA damage sites, intensity normalised to time 0 (Figure3E) (OGG1-GFP in U2OS cells; 10uM, time 18 s): 1.27 (2×) and 1.28 (3×) and 1.24 (3×) and 1.15 and 1.21 and 1.19 and 1.25 (3×) and 1.31
- OGG1-GFP recruitment to DNA damage sites, intensity normalised to time 0 (Figure3E) (OGG1-GFP in U2OS cells; 10uM, time 20 s): 1.3 and 1.29 and 1.33 and 1.26 and 1.15 and 1.24 and 1.21 and 1.27 (2×) and 1.28
- Maximum Intensity (OGG1-GFP at damage sites) (OGG1-GFP in U2OS cells; 50uM, single cells, U2OS): 1.31 and 1.3 and 1.27 and 1.34 and 1.37 and 1.28 and 1.23 and 1.32
- OGG1-GFP recruitment to DNA damage sites, intensity normalised to time 0 (Figure3E) (OGG1-GFP in U2OS cells; 50uM, time 14 s): 1.18 (2×) and 1.14 and 1.21 (4×) and 1.2 (3×) and 1.12 and 1.19 (2×) and 1.22 and 1.23
- OGG1-GFP recruitment to DNA damage sites, intensity normalised to time 0 (Figure3E) (OGG1-GFP in U2OS cells; 50uM, time 16 s): 1.19 and 1.14 and 1.22 (4×) and 1.15 and 1.21 (3×) and 1.2 (2×) and 1.24 and 1.25 and 1.23
- OGG1-GFP recruitment to DNA damage sites, intensity normalised to time 0 (Figure3E) (OGG1-GFP in U2OS cells; 50uM, time 18 s): 1.2 (3×) and 1.15 (2×) and 1.22 (3×) and 1.21 (2×) and 1.24 (3×) and 1.23 and 1.27
- recruitment of OGG1-GFP to laser-induced DNA damage sites (OGG1-GFP in U2OS cells; U2OS cells): impaired
- % inhibition of NF-κB activation (Figure3F) ([1]; Concentration 2.34e-7, single replicates): 12.9% and 24.6% and 2.1%
- % inhibition of NF-κB activation (Figure3F) ([1]; Concentration 4.69e-7, single replicates): 11.9% and 16.7% and -7.9%
- % inhibition of NF-κB activation (Figure3F) ([1]; Concentration 9.38e-7, single replicates): 11% and 6.8% and -9.9%
- % inhibition of NF-κB activation (Figure3F) ([1]; Concentration 1.88e-6, single replicates): 11.1% and 26.6% and 2.8%
- % inhibition of NF-κB activation (Figure3F) ([1]; Concentration 3.75e-6, single replicates): 21.4% and 46% and -1.3%
- % inhibition of NF-κB activation (Figure3F) ([1]; Concentration 7.5e-6, single replicates): 38.5% and 60.8% and 40%
- % inhibition of NF-κB activation (Figure3F) ([1]; Concentration 1.5e-5, single replicates): 56.3% and 70.5% and 50.3%
- % inhibition of NF-κB activation (Figure3F) ([1]; Concentration 3e-5, single replicates): 64.4% and 84.7% and 71.9%
- EC50 [1, 3]: 6.31 µM
- EC50 ([1]; inhibition of TNF-α-induced NF-κB activation, read-out: EC50): 6.3 µM
- percentage cell viability (A549 cells): 73.95%
- viability at 100 µM (A549 cells): 60.6%
- percentage cell viability (HCT116 cells): 61.96% and 97.34%
